Structures can show the parent of a compound that is named as a salt.
What was measured:
[1] = system: isoprenaline-induced acceleration in heart rate (anti-β effect); experiment: Antiadrenergic properties: anti-β effect (reduction of isoprenaline-induced tachycardia); assay type: in vivo; set-up: key to anti-β effect: +: for a reduction < 50%; ++: for a reduction ≥ 50%; +++: for a reduction sub-total (almost complete reduction); conditions: dog; for inhibition in vivo at 10 mg/kg: 10 mg/kg i.v., known compounds; for inhibition in vivo at 0.5 mg/kg: 0.5 mg/kg i.v.
Description: The object of this test is to determine the capacity of the compounds of the invention for reducing the increase in epinephrine-induced increase in blood-pressure (anti-α effect) and the isoprenaline-induced acceleration in heart rate (anti-β effect), in dogs previously anaesthatized with pentobarbital and atropinized. For each dog, the dose of epinephrine (between 3 and 10 μg/kg) which induced a reproducible increase in the blood-pressure of approximately 133×10^2 Pa and the dose of isoprenaline (1 to 2 μg/kg) which induced a reproducible increase in the heart rate of approximately 70 beats/min. were first determined. The dose of epinephrine and of isoprenaline, determined in this manner, were injected alternately every ten minutes and, after two successive reference responses had been obtained, an amount of the test compound was administered intravenously. The percentage reduction in the acceleration of the heart rate induced by the test compound compared with the reference tachycardia measured previously (approximately 70 beats) was recorded. In both cases, the results of the reduction in blood-pressure or in the heart rate have been expressed as follows: […]

[2] = system: epinephrine-induced increase in blood-pressure (anti-α effect); experiment: Antiadrenergic properties: anti-α effect (reduction of epinephrine-induced hypertension); assay type: in vivo; set-up: key to anti-α effect: +: for a reduction < 50%; ++: for a reduction ≥ 50%; +++: for a reduction sub-total (almost complete reduction); conditions: dog; for inhibition in vivo at 0.5 mg/kg: 0.5 mg/kg i.v.
Description: The object of this test is to determine the capacity of the compounds of the invention for reducing the increase in epinephrine-induced increase in blood-pressure (anti-α effect) and the isoprenaline-induced acceleration in heart rate (anti-β effect), in dogs previously anaesthatized with pentobarbital and atropinized. For each dog, the dose of epinephrine (between 3 and 10 μg/kg) which induced a reproducible increase in the blood-pressure of approximately 133×10^2 Pa and the dose of isoprenaline (1 to 2 μg/kg) which induced a reproducible increase in the heart rate of approximately 70 beats/min. were first determined. The dose of epinephrine and of isoprenaline, determined in this manner, were injected alternately every ten minutes and, after two successive reference responses had been obtained, an amount of the test compound was administered intravenously. The percentage reduction in the hypertension induced by the test compound compared with the reference hypertension previously obtained (approximately 100 mm Hg) was recorded. In both cases, the results of the reduction in blood-pressure or in the heart rate have been expressed as follows: […]

[3] = system: isolated rat aorta; experiment: Calcium inhibitory properties: contractile response to potassium-induced depolarization on isolated rat aorta; set-up: species or system isolated organ, male Wistar rats; conditions: for activity at 1 µM: 10^-6 M; for activity at 0.1 µM: 10^-7 M; for % of the maximum contractional effect: 60 min
Method in brief: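 Male Wistar rat aorta strips under 2 g tension in modified Krebs-bicarbonate at 37° C, gassed with CO2/O2; contraction induced by 100 mM KCl potassium-Krebs. Compound incubated 60 min before repeat K+ depolarization; response expressed as % of maximum contraction before compound.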

[4] = Canis lupus familiaris, iv, 10 mg/kg i.v., known compounds
[5] = Rattus norvegicus, 1 h, read-out: % of the maximum contractional effect
[6] = Rattus norvegicus, 1 h, 10^-8 M, read-out: % of the maximum contractional effect
[7] = Canis lupus familiaris, iv, 5 mg/kg i.v.

COc1ccc(CCN(C)CC(O)COc2ccc(S(=O)(=O)c3c(C(C)C)cn4ccccc34)cc2)cc1OC (racemic) [Ex. 50, hydrochloride]
anti-β effect ([1]; 0.1 mg/kg i.v.): +++
anti-α effect ([2]; 0.1 mg/kg i.v.): +++

CCCCc1oc2ccccc2c1S(=O)(=O)c1ccc(OCCN(CC)CC)cc1 [Compound A, reference compound]
inhibition in vivo at 10 mg/kg ([1]; Canis lupus familiaris, iv): 0%
inhibition in vivo at 10 mg/kg [2, 4]: < 50%
activity at 1 µM [3, 5]: 25%
activity at 0.1 µM [3, 5]: 60.3%
activity at 0.01 µM [3, 6]: 84.3%

CCc1oc2ccccc2c1S(=O)(=O)c1ccc(OCCN(CC)CC)cc1 [Compound B, reference compound]
inhibition in vivo at 10 mg/kg ([1]; Canis lupus familiaris, iv): < 50%
anti-α effect ([2]; 10 mg/kg i.v., known compounds): +++
activity at 1 µM [3, 5]: 52.2%
activity at 0.1 µM [3, 5]: 84.9%

CCCCc1cn2ccccc2c1C(=O)c1ccc(OCCCN(CCCC)CCCC)cc1 [Compound C, reference compound]
inhibition in vivo at 10 mg/kg ([1]; Canis lupus familiaris, iv): 0%
inhibition in vivo at 10 mg/kg [2, 4]: < 50%
activity at 1 µM [3, 5]: 25%
activity at 0.1 µM [3, 5]: 74.4%

CCCCN(CCCC)CCCOc1c(C)cc(C(=O)c2c(CC)cn3ccccc23)cc1C [Compound D, reference compound]
inhibition in vivo at 10 mg/kg ([1]; Canis lupus familiaris, iv): < 50%
inhibition in vivo at 10 mg/kg [2, 4]: < 50%
activity at 1 µM [3, 5]: 19.3%
activity at 0.1 µM [3, 5]: 64.7%

CCCN(CCC)CCCOc1ccc(C(=O)c2c(CC)cn3ccccc23)cc1 [Compound E, reference compound]
inhibition in vivo at 10 mg/kg ([1]; Canis lupus familiaris, iv): ≥ 50%
inhibition in vivo at 10 mg/kg [2, 4]: < 50%
activity at 1 µM [3, 5]: 37.9%
activity at 0.1 µM [3, 5]: 89.1%

CCCCN(CCCC)CCCOc1ccc(C(=O)c2c(CC)cn3ccccc23)cc1 [Compound F, reference compound]
inhibition in vivo at 10 mg/kg ([1]; Canis lupus familiaris, iv): 0%

CCCCN(CCCC)CCCOc1ccc(S(=O)(=O)c2c(C(C)C)cn3ccccc23)cc1 [Ex. 1, 2-isopropyl-1-{4-[3-(di-n-butylamino)propyloxy]benzenesulphonyl}indolizineoxalate]
inhibition in vivo at 0.5 mg/kg ([1]; Canis lupus familiaris, iv): ≥ 50%
inhibition in vivo at 0.5 mg/kg ([2]; Canis lupus familiaris, iv): ≥ 50%
activity at 1 µM [3, 5]: 2%
activity at 0.1 µM [3, 5]: 18.9%
activity at 0.01 µM [3, 6]: 61%

CCc1cn2ccccc2c1S(=O)(=O)c1ccc(OCCCN2CCCCC2)cc1.Cl [Ex. 2, 2-ethyl-1-[4-(3-piperidinopropyloxy)benzenesulphonyl]indolizine hydrochloride]
inhibition in vivo at 5 mg/kg [1, 7]: ≥ 50%
anti-α effect ([2]; 5 mg/kg i.v.): +++
activity at 1 µM [3, 5]: 22.6%
activity at 0.1 µM [3, 5]: 79.8%

CCCCN(CCCC)CCCOc1ccc(S(=O)(=O)c2c(CC)cn3ccccc23)cc1 [Ex. 8, 2-Ethyl-1-{4-[3-(di-n-butylamino)propyloxy]benzenesulphonyl}indolizine hydrochloride]
inhibition in vivo at 0.5 mg/kg ([1]; Canis lupus familiaris, iv): < 50%
inhibition in vivo at 0.5 mg/kg ([2]; Canis lupus familiaris, iv): ≥ 50%
activity at 0.1 µM [3, 5]: 30.9%

CCCCc1cn2ccccc2c1S(=O)(=O)c1ccc(OCCCN(CCC)CCC)cc1.O=C(O)C(=O)O [Ex. 12, 2-n-Butyl-1-{4-[3-(di-n-propylamino)propyloxy]benzenesulphonyl}indolizine oxalate]
anti-β effect ([1]; 5 mg/kg i.v.): +++
inhibition in vivo at 5 mg/kg [2, 7]: ≥ 50%
activity at 1 µM [3, 5]: 36.3%

CC(C)c1cn2ccccc2c1S(=O)(=O)c1ccc(OCCCN(C)C)cc1 [Ex. 14, 2-Isopropyl-1-{4-[3-(dimethylamino)propyloxy]benzenesulphonyl}indolizine]
anti-β effect ([1]; 2.5 mg/kg i.v.): +++
anti-α effect ([2]; 2.5 mg/kg i.v.): +++
activity at 1 µM [3, 5]: 32.6%

CCN(CC)CCCOc1ccc(S(=O)(=O)c2c(C(C)C)cn3ccccc23)cc1 [Ex. 15, 2-Isopropyl-1-{4-[3-(diethylamino)propyloxy]benzenesulphonyl}indolizine]
anti-β effect ([1]; 2.5 mg/kg i.v.): +++
anti-α effect ([2]; 2.5 mg/kg i.v.): +++
activity at 1 µM [3, 5]: 18.4%
activity at 0.1 µM [3, 5]: 71.2%

CCCN(CCC)CCCOc1ccc(S(=O)(=O)c2c(C(C)C)cn3ccccc23)cc1 [Ex. 17, 2-Isopropyl-1-{4-[3-(di-n-propylamino)propyloxy]benzenesulphonyl}indolizineoxalate]
inhibition in vivo at 1.3 mg/kg ([1]; Canis lupus familiaris, iv, 1.3 mg/kg i.v.): ≥ 50%
anti-α effect ([2]; 1.3 mg/kg i.v.): +++
activity at 1 µM [3, 5]: 7.4%
activity at 0.1 µM [3, 5]: 50.4%

CCCCN(C)CCCOc1ccc(S(=O)(=O)c2c(CC)cn3ccccc23)cc1.O=C(O)C(=O)O [Ex. 20, 2-Ethyl-1-{4-[3-(N-methyl-N-butylamino)propyloxy]benzenesulphonyl}indolizine oxalate]
anti-β effect ([1]; 5 mg/kg i.v.): +++
anti-α effect ([2]; 5 mg/kg i.v.): +++
activity at 1 µM [3, 5]: 6.8%
activity at 0.1 µM [3, 5]: 60%

CCCCNCCCOc1ccc(S(=O)(=O)c2c(CC)cn3ccccc23)cc1.O=C(O)C(=O)O [Ex. 21, 2-Ethyl-1-{4-[3-(n-butylamino)propyloxy]benzenesulphonyl}indolizine oxalate]
anti-β effect ([1]; 5 mg/kg i.v.): +++
anti-α effect ([2]; 5 mg/kg i.v.): +++
activity at 1 µM [3, 5]: 8.3%
activity at 0.1 µM [3, 5]: 74.7%

CCCCN(CCCC)CCCOc1ccc(S(=O)(=O)c2cn[nH]c2C(C)C)cc1 [Ex. 125, 4-{4-[3-(di-n-butylamino)propyloxy]benzenesulphonyl}-5-isopropyl-pyrazole acid oxalate]
activity at 1 µM [3, 5]: 79.3%
activity at 0.1 µM [3, 5]: 90.4%
% of the maximum contractional effect ([3]; head printed "10^-" (exponent missing; first of three columns before 10^-6 M)): 38.6%

CCCCN(CCCC)CCCOc1ccc(S(=O)(=O)c2c(-c3ccccc3)noc2C(C)C)cc1 [Ex. 126, 4-{4-[3-(di-n-butylamino)propyloxy]benzenesulphonyl}-5-isopropyl-3-phenyl-isoxazole]
activity at 1 µM [3, 5]: 10%
activity at 0.1 µM [3, 5]: 38.7%
activity at 0.01 µM [3, 6]: 75.8%

CCCCN(CCCC)CCCOc1ccc(S(=O)(=O)c2ccc3ccccc3c2)cc1 [Ex. 127, 2-{4-[3-(di-n-butylamino)propyloxy]benzenesulphonyl}-naphthalene acid oxalate]
activity at 1 µM [3, 5]: 50.7%
activity at 0.1 µM [3, 5]: 86.2%

COc1cc(CCN(C)CCCOc2ccc(S(=O)(=O)c3c(C(C)C)cn4ccccc34)cc2)cc(OC)c1OC [Ex. 134, 2-isopropyl-1-[4-{3-[N-methyl-N-(3,4,5-trimethoxy-β-phenethyl)amino]propyloxy}benzenesulphonyl]indolizine acid oxalate]
activity at 0.1 µM [3, 5]: 18.9%
activity at 0.01 µM [3, 6]: 21.4%
activity at 0.001 µM ([3]; Rattus norvegicus, 1 h, 10^-9 M, read-out: % of the maximum contractional effect): 65.7%

COc1cc(CCN(C)CCCOc2ccc(S(=O)(=O)c3c(C(C)C)cn4ccccc34)cc2)cc(C)c1OC.O=C(O)C(=O)O [Ex. 135, 2-isopropyl-1-[4-{3-[N-methyl-N-(3,4-dimethoxy-5-methyl-β-phenethyl)amino]propyloxy}benzenesulphonyl]indolizine acid oxalate]
% of the maximum contractional effect ([3]; 10^-8 M, 0.01 µM): 21.1%
% of the maximum contractional effect ([3]; 10^-9 M, 0.001 µM): 58.5%
% of the maximum contractional effect ([3]; 10^-10 M, 0.0001 µM): 78.9%

COc1cc(CCNCCCOc2ccc(S(=O)(=O)c3c(C(C)C)cn4ccccc34)cc2)cc(C)c1OC.O=C(O)C(=O)O [Ex. 139, 2-isopropyl-1-[4-{3-[N-(3,4-dimethoxy-5-methyl-β-phenethyl)amino]propyloxy}benzenesulphonyl]-indolizine acid oxalate]
% of the maximum contractional effect ([3]; 10^-8 M, 0.01 µM): 49%
% of the maximum contractional effect ([3]; 10^-9 M, 0.001 µM): 89%

COc1cc(CCN(C)CCCOc2ccc(S(=O)(=O)c3c(C(C)C)c4ccccc4n3C)cc2)cc(OC)c1 [Ex. 146, 1-methyl-3-isopropyl-2-[4-{3-[N-methyl-N-(3,5-dimethoxy-β-phenethyl)amino]propyloxy}benzenesulphonyl]indole acid oxalate]
inhibition in vivo at 0.07 mg/kg ([1]; Canis lupus familiaris, iv, 0.07 mg/kg i.v.): ≥ 50%
anti-α effect ([2]; 0.07 mg/kg i.v.): +++

Reference: patent US5147878A, “Aminoalkoxyphenyl derivatives, process of preparation and compositions containing the same” (Sanofi, priority 1986, dated 1992)
